Measured values published in patent EP4685153A1 (priority 2023, dated 2024).
Residues, ends and D or L forms follow the SMILES beside them. *: point of attachment. Succinyl(4-O-cholesteryl) = CC(C)CCC[C@@H](C)[C@H]1CC[C@H]2[C@@H]3CC=C4C[C@@H](OC(=O)CCC(=O)*)CC[C@]4(C)[C@H]3CC[C@]12C

System: SARS-CoV-2 D614G mutant strain
Conditions: 48 h

| Structure (SMILES) | IC50 |
| --- | --- |
| CC[C@H](C)[C@H](NC(=O)[C@H](CCCCN)NC(=O)[C@H](CCCCN)NC(=O)[C@H](CCC(=O)O)NC(=O)[C@H](CC(C)C)NC(=O)[C@H](CCC(=O)O)NC(=O)[C@H](CCC(=O)O)NC(=O)[C@H](CC(C)C)NC(=O)[C@H](CCC(=O)O)NC(=O)[C@H](CCCCN)NC(=O)[C@H](CCC(=O)O)NC(=O)[C@H](Cc1ccc(O)cc1)NC(=O)[C@H](CCC(=O)O)NC(=O)[C@H](CCC(=O)O)NC(=O)[C@H](Cc1ccc(O)cc1)NC(=O)[C@H](CCC(=O)O)NC(C)=O)C(=O)N[C@@H](CCC(=O)O)C(=O)N[C@@H](CCC(=O)O)C(=O)N[C@@H](CC(C)C)C(=O)N[C@@H](CC(C)C)C(=O)N[C@@H](CCCCN)C(=O)N[C@@H](CCCCN)C(=O)N[C@@H](C)C(=O)N[C@@H](CCC(=O)O)C(=O)N[C@@H](CCC(=O)O)C(=O)N[C@@H](CCC(N)=O)C(=O)N[C@@H](CCC(N)=O)C(=O)N[C@@H](CCCCN)C(=O)N[C@@H](CCCCN)C(=O)N[C@@H](CC(N)=O)C(=O)N[C@@H](CCC(=O)O)C(=O)N[C@@H](C)C(=O)N[C@@H](C)C(=O)N[C@@H](C)C(=O)N[C@@H](CCCCN)C(=O)N[C@@H](CCCCNC(=O)CCC(=O)O[C@H]1CC[C@@]2(C)C(=CC[C@H]3[C@@H]4CC[C@H]([C@H](C)CCCC(C)C)[C@@]4(C)CC[C@@H]32)C1)C(N)=O [LP-127] (Ac-EYEEYEKELEELEKKIEELLKKAEEQQKKNEAAAKK(Succinyl(4-O-cholesteryl))-NH2) | 0.0274 µM |
| CC[C@H](C)[C@H](NC(=O)[C@H](CCCCN)NC(=O)[C@H](CCCCN)NC(=O)[C@H](CCC(=O)O)NC(=O)[C@H](CC(C)C)NC(=O)[C@H](CCC(=O)O)NC(=O)[C@H](CCC(=O)O)NC(=O)[C@H](CC(C)C)NC(=O)[C@H](CCC(=O)O)NC(=O)[C@H](CCCCN)NC(=O)[C@H](CCC(=O)O)NC(=O)[C@H](Cc1ccc(O)cc1)NC(=O)[C@H](CCC(=O)O)NC(C)=O)C(=O)N[C@@H](CCC(=O)O)C(=O)N[C@@H](CCC(=O)O)C(=O)N[C@@H](CC(C)C)C(=O)N[C@@H](CC(C)C)C(=O)N[C@@H](CCCCN)C(=O)N[C@@H](CCCCN)C(=O)N[C@@H](C)C(=O)N[C@@H](CCC(=O)O)C(=O)N[C@@H](CCC(=O)O)C(=O)N[C@@H](CCC(N)=O)C(=O)N[C@@H](CCC(N)=O)C(=O)N[C@@H](CCCCN)C(=O)N[C@@H](CCCCN)C(=O)N[C@@H](CC(N)=O)C(=O)N[C@@H](CCC(=O)O)C(=O)N[C@@H](C)C(=O)N[C@@H](C)C(=O)N[C@@H](C)C(=O)N[C@@H](CCCCN)C(=O)N[C@@H](CCCCNC(=O)CCC(=O)O[C@H]1CC[C@@]2(C)C(=CC[C@H]3[C@@H]4CC[C@H]([C@H](C)CCCC(C)C)[C@@]4(C)CC[C@@H]32)C1)C(N)=O [LP-128] (Ac-EYEKELEELEKKIEELLKKAEEQQKKNEAAAKK(Succinyl(4-O-cholesteryl))-NH2) | 0.0251 µM |
